# Assay results reported in patent US20040185566A1, “Polypeptides toxic to nematodes and methods of use” (priority 2003, published 2004).
# Like-named read-outs stand apart in the source and are kept apart here.
# What was measured:
# SMP #1 = SMP #1 (Serratia marcescens, UniProt P23694, N428Q/P266L); format: biochemical, S. marcescens NRRL B-23112
# R. similis = experiment: Assay for lytic activity against R. similis (microtiter plates); format: in vivo
# Experimental: The assays were performed in microtiter plates. Ten microliters of R. similissuspensions were placed in microtiter plate wells. Serially diluted SMP #1 (100U in 0.1 ml stock) was added to the wells. PBS was added to a series of wells containing R. similis as a control. The nematodes were stored at 20° C. and examined for lytic effects or death at 48 and 96 hours.
# A. suum = experiment: Assay for lytic activity against live A. suum; conditions: A. suum
# Sequence of SMP #1 (P23694 17-487 P266L/N428Q): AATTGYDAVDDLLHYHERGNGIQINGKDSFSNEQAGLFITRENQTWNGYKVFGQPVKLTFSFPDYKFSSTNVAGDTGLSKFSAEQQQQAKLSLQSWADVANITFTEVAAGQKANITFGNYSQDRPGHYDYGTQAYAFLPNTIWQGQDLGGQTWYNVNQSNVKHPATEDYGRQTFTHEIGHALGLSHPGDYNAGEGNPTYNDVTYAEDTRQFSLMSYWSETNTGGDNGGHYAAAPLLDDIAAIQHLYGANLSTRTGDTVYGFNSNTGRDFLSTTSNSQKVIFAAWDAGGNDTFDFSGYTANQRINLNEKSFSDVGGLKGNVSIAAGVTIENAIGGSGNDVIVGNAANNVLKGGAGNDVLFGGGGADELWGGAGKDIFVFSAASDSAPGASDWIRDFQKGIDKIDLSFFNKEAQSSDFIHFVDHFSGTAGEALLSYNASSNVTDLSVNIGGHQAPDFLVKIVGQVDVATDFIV
compound,measurement,setting,value
CC(C)C[C@H](NC(=O)[C@H]1O[C@@H]1C(=O)O)C(=O)NCCCCN=C(N)N [E-64],inhibition of SMP #1 proteolytic activity,SMP #1; E-64 20 μg/ml,not inhibited
O=C(O)CN(CCN(CC(=O)O)CC(=O)O)CC(=O)O [EDTA],inhibition of SMP #1 proteolytic activity,SMP #1; EDTA 9μg/ml,inhibited
Cl.NCCc1ccc(S(=O)(=O)F)cc1 [Pefabloc SC],inhibition of SMP #1 proteolytic activity,SMP #1; Pefabloc SC 2000 μ/ml,not inhibited
aprotinin,inhibition of SMP #1 proteolytic activity,SMP #1; aprotinin 4 μg/ml,not inhibited
"serratiopeptidase [SMP #2, reference compound]",Dead (nematodes counted),"R. similis; 10 U/well, 10 wells, 20° C.",109
same,Live (nematodes counted),"R. similis; 10 U/well, 10 wells, 20° C.",175
same,% mortality,"R. similis; 10 U/well, 10 wells, 20° C., significant difference (p < 0.05) between treatments",38%
same,lysis / mortality of the nematode on contact,R. similis; R. similis,does not lyse or cause significant mortality
same,lysis / mortality of the nematode on contact,A. suum,does not lyse or cause significant mortality
